Where a name gives a salt, the structure may show the parent alone. Read-outs that look alike come from different tables or passages of the source.
Key:
[1] = tested on: iCell cardiomyocytes (human iPSC-derived cardiomyocytes); assay: High-content imaging of cytotoxicity and mitochondrial integrity in iPSC-CMs; assay type: cell-based; conditions: Homo sapiens; for viability at 0.01 µM / activity at 0.01 µM / viability at 0.1 µM / activity at 0.1 µM / viability at 1 µM / activity at 1 µM / viability at 10 µM / activity at 10 µM / viability at 100 µM / activity at 100 µM: Cardiomyocyte, 0.00 µM = 100.00; for viability at 0.1 µM / activity at 0.1 µM: 0.10 µM; for minimal effective concentration: iPSC-CM
Procedure, shortened: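 Human iPSC-derived cardiomyocytes were seeded on gelatin-coated 384-well plates at 5,000 cells per well and maintained for 12 d. Test chemicals were added as 10μL of 5× solutions to final concentrations of 0.01 to 100μM. Cells were stained with Hoechst 33342 and MitoTracker™ Orange, fixed in formaldehyde, and imaged by confocal high-content microscopy at 10× magnification.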

[2] = tested on: HUVECs; assay: High-content imaging cytotoxicity in HUVECs, 24 h; assay type: cell-based, human; conditions: Homo sapiens, HUVEC, 24 h, HUVECs; for viability at 0.01 µM / activity at 0.01 µM / viability at 0.1 µM / activity at 0.1 µM / viability at 1 µM / activity at 1 µM / viability at 10 µM / activity at 10 µM / viability at 100 µM / activity at 100 µM: 0.00 µM = 100.00; for viability at 0.1 µM / activity at 0.1 µM: 0.10 µM; for minimal effective concentration: top concentration 100.00 µM
Procedure, shortened: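 HUVECs (passages 1–5) grown to monolayer over 3–5 d, then exposed 24 h at 37°C, 5% CO2; stained with Hoechst 33342, MitoTracker Orange and calcein AM and imaged at 10×. Readouts normalized to 0.5% DMSO vehicle, four-parameter logistic fit; POD at one-SD cutoff, 100μM assigned when no response.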

[3] = 24 hr, read-out: huvec.cyto.24hr
[4] = 24 hr, read-out: huvec.mito.24hr
[5] = 24 hr, read-out: huvec.mitoint.24hr
[6] = 24 hr, read-out: huvec.nma.24hr
[7] = 24 hrs, read-out: huvec.tc.24hrs

How did the viability at 0.01 µM ([1]; 1.5 h, read-out: cm.cam.90min) turn out when `O=S(=O)(O)Oc1ccc(-c2cccc(Cl)c2)cc1Cl` [4-yl PCB 11 sulfate] was run?
The viability at 0.01 µM was 100%.

And the activity at 0.01 µM ([1]; 1.5 h, read-out: cm.mii.90min)?
The activity at 0.01 µM was 101%.

What about the activity at 0.01 µM ([1]; 1.5 h, read-out: cm.mito.90min) of the same molecule?
Its activity at 0.01 µM is 99.5%.

And the viability at 0.01 µM ([1]; 1.5 h, read-out: cm.tc.90min)?
Its viability at 0.01 µM is 100%.

And the viability at 0.1 µM ([1]; 1.5 h, read-out: cm.cam.90min)?
The viability at 0.1 µM was 99.7%.

And the activity at 0.1 µM ([1]; 1.5 h, read-out: cm.mii.90min)?
Its activity at 0.1 µM is 117%.

What about the activity at 0.1 µM ([1]; 1.5 h, read-out: cm.mito.90min) of the same molecule?
Its activity at 0.1 µM is 99.5%.

And the viability at 0.1 µM ([1]; 1.5 h, read-out: cm.tc.90min)?
Its viability at 0.1 µM is 99.6%.

What about the viability at 1 µM ([1]; 1.5 h, read-out: cm.cam.90min) of the same molecule?
Its viability at 1 µM is 101%.

What about the activity at 1 µM ([1]; 1.5 h, read-out: cm.mii.90min) of the same molecule?
The activity at 1 µM was 114%.

And the activity at 1 µM ([1]; 1.5 h, read-out: cm.mito.90min)?
The activity at 1 µM was 101%.

And the viability at 1 µM ([1]; 1.5 h, read-out: cm.tc.90min)?
The viability at 1 µM was 101%.

And the viability at 10 µM ([1]; 1.5 h, read-out: cm.cam.90min)?
The viability at 10 µM was 98.7%.

What about the activity at 10 µM ([1]; 1.5 h, read-out: cm.mii.90min) of the same molecule?
The activity at 10 µM was 103%.

And the activity at 10 µM ([1]; 1.5 h, read-out: cm.mito.90min)?
The activity at 10 µM was 98.5%.

And the viability at 10 µM ([1]; 1.5 h, read-out: cm.tc.90min)?
The viability at 10 µM was 98.6%.

What about the viability at 100 µM ([1]; 1.5 h, read-out: cm.cam.90min) of the same molecule?
Its viability at 100 µM is 99.5%.

And the activity at 100 µM ([1]; 1.5 h, read-out: cm.mii.90min)?
Its activity at 100 µM is 108%.

What about the activity at 100 µM ([1]; 1.5 h, read-out: cm.mito.90min) of the same molecule?
Its activity at 100 µM is 99.1%.

What about the viability at 100 µM ([1]; 1.5 h, read-out: cm.tc.90min) of the same molecule?
Its viability at 100 µM is 99.5%.

What about the viability at 0.01 µM ([1]; 24 h, read-out: cm.cam.24hrs) of the same molecule?
Its viability at 0.01 µM is 88.6%.

What about the activity at 0.01 µM ([1]; 24 h, read-out: cm.mii.24hrs) of the same molecule?
The activity at 0.01 µM was 106%.

What about the activity at 0.01 µM ([1]; 24 h, read-out: cm.mito.24hrs) of the same molecule?
The activity at 0.01 µM was 87.2%.

And the viability at 0.01 µM ([1]; 24 h, read-out: cm.tc.24hrs)?
The viability at 0.01 µM was 89.5%.

What about the viability at 0.1 µM ([1]; 24 h, read-out: cm.cam.24hrs) of the same molecule?
Its viability at 0.1 µM is 101%.

What about the activity at 0.1 µM ([1]; 24 h, read-out: cm.mii.24hrs) of the same molecule?
The activity at 0.1 µM was 114%.

What about the activity at 0.1 µM ([1]; 24 h, read-out: cm.mito.24hrs) of the same molecule?
The activity at 0.1 µM was 102%.

And the viability at 0.1 µM ([1]; 24 h, read-out: cm.tc.24hrs)?
Its viability at 0.1 µM is 102%.

What about the viability at 1 µM ([1]; 24 h, read-out: cm.cam.24hrs) of the same molecule?
The viability at 1 µM was 102%.

And the activity at 1 µM ([1]; 24 h, read-out: cm.mii.24hrs)?
The activity at 1 µM was 101%.

And the activity at 1 µM ([1]; 24 h, read-out: cm.mito.24hrs)?
The activity at 1 µM was 101%.

And the viability at 1 µM ([1]; 24 h, read-out: cm.tc.24hrs)?
The viability at 1 µM was 102%.

And the viability at 10 µM ([1]; 24 h, read-out: cm.cam.24hrs)?
Its viability at 10 µM is 85.6%.

What about the activity at 10 µM ([1]; 24 h, read-out: cm.mii.24hrs) of the same molecule?
Its activity at 10 µM is 102%.

And the activity at 10 µM ([1]; 24 h, read-out: cm.mito.24hrs)?
The activity at 10 µM was 82.8%.

What about the viability at 10 µM ([1]; 24 h, read-out: cm.tc.24hrs) of the same molecule?
The viability at 10 µM was 86.3%.

What about the viability at 100 µM ([1]; 24 h, read-out: cm.cam.24hrs) of the same molecule?
Its viability at 100 µM is 10.5%.

What about the activity at 100 µM ([1]; 24 h, read-out: cm.mii.24hrs) of the same molecule?
Its activity at 100 µM is 48.4%.

What about the activity at 100 µM ([1]; 24 h, read-out: cm.mito.24hrs) of the same molecule?
The activity at 100 µM was 5.02%.

What about the viability at 100 µM ([1]; 24 h, read-out: cm.tc.24hrs) of the same molecule?
Its viability at 100 µM is 10.7%.

And the minimal effective concentration ([1]; 1.5 h, read-out: cm.cam.90min POD)?
The minimal effective concentration was 100 µM.

And the minimal effective concentration ([1]; 1.5 h, read-out: cm.mii.90min POD)?
The minimal effective concentration was 100 µM.

What about the minimal effective concentration ([1]; 1.5 h, read-out: cm.mito.90min POD) of the same molecule?
Its minimal effective concentration is 100 µM.

And the minimal effective concentration ([1]; 1.5 h, read-out: cm.tc.90min POD)?
The minimal effective concentration was 100 µM.

And the minimal effective concentration ([1]; 24 h, read-out: cm.cam.24hrs POD)?
Its minimal effective concentration is 5.91 µM.

And the minimal effective concentration ([1]; 24 h, read-out: cm.mii.24hrs POD)?
The minimal effective concentration was 49.2 µM.

And the minimal effective concentration ([1]; 24 h, read-out: cm.mito.24hrs POD)?
The minimal effective concentration was 7.07 µM.

What about the minimal effective concentration ([1]; 24 h, read-out: cm.tc.24hrs POD) of the same molecule?
The minimal effective concentration was 6.38 µM.

And the viability at 0.01 µM [2, 3]?
The viability at 0.01 µM was 97.3%.

And the activity at 0.01 µM [2, 4]?
Its activity at 0.01 µM is 95.5%.

What about the activity at 0.01 µM [2, 5] of the same molecule?
The activity at 0.01 µM was 95.8%.

And the activity at 0.01 µM [2, 6]?
The activity at 0.01 µM was 97.3%.

What about the viability at 0.1 µM [2, 3] of the same molecule?
The viability at 0.1 µM was 86.8%.

And the activity at 0.1 µM [2, 4]?
Its activity at 0.1 µM is 85.9%.

What about the activity at 0.1 µM [2, 5] of the same molecule?
Its activity at 0.1 µM is 118%.

What about the activity at 0.1 µM [2, 6] of the same molecule?
The activity at 0.1 µM was 104%.

And the viability at 1 µM [2, 3]?
Its viability at 1 µM is 97.8%.

And the activity at 1 µM [2, 4]?
Its activity at 1 µM is 96.6%.

What about the activity at 1 µM [2, 5] of the same molecule?
Its activity at 1 µM is 99.3%.

And the activity at 1 µM [2, 6]?
The activity at 1 µM was 97%.

And the viability at 10 µM [2, 3]?
The viability at 10 µM was 108%.

What about the activity at 10 µM [2, 4] of the same molecule?
The activity at 10 µM was 107%.

And the activity at 10 µM [2, 5]?
The activity at 10 µM was 93.5%.

What about the activity at 10 µM [2, 6] of the same molecule?
The activity at 10 µM was 93.9%.

What about the viability at 100 µM [2, 3] of the same molecule?
Its viability at 100 µM is 58.3%.

And the activity at 100 µM [2, 4]?
Its activity at 100 µM is 58.9%.

And the activity at 100 µM [2, 5]?
The activity at 100 µM was 54.2%.

And the activity at 100 µM [2, 6]?
The activity at 100 µM was 75.6%.

What about the minimal effective concentration ([2]; 24 hr, read-out: huvec.cyto.24hr POD) of the same molecule?
Its minimal effective concentration is 48.8 µM.

And the minimal effective concentration ([2]; 24 hr, read-out: huvec.mito.24hr POD)?
The minimal effective concentration was 45.1 µM.

And the minimal effective concentration ([2]; 24 hr, read-out: huvec.mitoint.24hr POD)?
Its minimal effective concentration is 10.8 µM.

And the minimal effective concentration ([2]; 24 hr, read-out: huvec.nma.24hr POD)?
The minimal effective concentration was 2.98 µM.

What about the viability at 0.01 µM [2, 7] of the same molecule?
The viability at 0.01 µM was 97.3%.

What about the viability at 0.1 µM [2, 7] of the same molecule?
Its viability at 0.1 µM is 86.8%.

And the viability at 1 µM [2, 7]?
Its viability at 1 µM is 97.8%.

What about the viability at 10 µM [2, 7] of the same molecule?
Its viability at 10 µM is 108%.

What about the viability at 100 µM [2, 7] of the same molecule?
Its viability at 100 µM is 59.1%.

And the minimal effective concentration ([2]; 24 hrs, read-out: huvec.tc.24hrs POD)?
Its minimal effective concentration is 48.8 µM.

Reference: article PMC7377239, “Cardiovascular Effects of Polychlorinated Biphenyls and Their Major Metabolites” (Environmental Health Perspectives, 2020)
